Data from ChEMBL document CHEMBL1201862, “PubChem BioAssay data set” (2004).
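Step 1: Grow cells in 96-well plates. Step 2: Expose to compound for 48 hours at 5 concentrations. Step 3: Interpolate endpoints linearly; if unreached, use highest concentration. The concentration for 50% growth inhibition is given as GI50.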 Active and inactive are the calls of the source. No stated cut-off is given here; in the data, active = GI50 up to about 1.1 µM and inactive = higher.

How the values were obtained:
Assay in all cases: NCI tumour cell line growth inhibition, 48 h
[1] = tested on: 786-0
[2] = tested on: A549
[3] = tested on: ACHN
[4] = tested on: CAKI-1
[5] = tested on: CCRF-CEM
[6] = tested on: COLO 205
[7] = tested on: DU-145
[8] = tested on: EKVX
[9] = tested on: HCT-116
[10] = tested on: HCT-15
[11] = tested on: HL-60
[12] = tested on: HOP-62
[13] = tested on: HT-29
[14] = tested on: Hs-578T
[15] = tested on: IGROV-1
[16] = tested on: K562
[17] = tested on: KM12
[18] = tested on: LOX IMVI
[19] = tested on: M14
[20] = tested on: MCF7
[21] = tested on: MDA-MB-231
[22] = tested on: MDA-MB-435
[23] = tested on: MDA-N
[24] = tested on: MOLT-4
[25] = tested on: NCI-H226
[26] = tested on: NCI-H460
[27] = tested on: NCI-H522
[28] = tested on: NCI/ADR-RES
[29] = tested on: OVCAR-3
[30] = tested on: OVCAR-5
[31] = tested on: OVCAR-8
[32] = tested on: PC-3
[33] = tested on: RPMI-8226
[34] = tested on: RXF 393
[35] = tested on: SF-268
[36] = tested on: SF-295
[37] = tested on: SF-539
[38] = tested on: SK-MEL-28
[39] = tested on: SK-MEL-2
[40] = tested on: SK-MEL-5
[41] = tested on: SK-OV-3
[42] = tested on: SN12C
[43] = tested on: SNB-19
[44] = tested on: SNB-75
[45] = tested on: SR
[46] = tested on: SW-620
[47] = tested on: T47D
[48] = tested on: TK-10
[49] = tested on: U-251
[50] = tested on: UACC-257
[51] = tested on: UO-31
[52] = tested on: HOP-92
[53] = tested on: Malme-3M
[54] = tested on: NCI-H23
[55] = tested on: UACC-62

SMILES: CC1(C)CC(=O)c2c(nc3c(ccc4ccccc43)c2-c2ccc(NC(=O)CCCC(=O)Nc3ccc(-c4c5c(nc6c4ccc4ccccc46)CC(C)(C)CC5=O)cc3)cc2)C1
- GI50 [1]: > 100 µM (inactive)
- GI50 [2]: > 100 µM (inactive)
- GI50 [3]: > 100 µM (inactive)
- GI50 [4]: > 100 µM (inactive)
- GI50 [5]: > 100 µM (inactive)
- GI50 [6]: > 100 µM (inactive)
- GI50 [7]: > 100 µM (inactive)
- GI50 [8]: > 100 µM (inactive)
- GI50 [9]: > 100 µM (inactive)
- GI50 [10]: 46.5 µM
- GI50 [11]: > 100 µM (inactive)
- GI50 [12]: > 100 µM (inactive)
- GI50 [13]: > 100 µM (inactive)
- GI50 [14]: > 100 µM (inactive)
- GI50 [15]: 58.5 µM (inactive)
- GI50 [16]: > 100 µM (inactive)
- GI50 [17]: > 100 µM (inactive)
- GI50 [18]: > 100 µM (inactive)
- GI50 [19]: > 100 µM (inactive)
- GI50 [20]: > 100 µM (inactive)
- GI50 [21]: > 100 µM (inactive)
- GI50 [22]: > 100 µM (inactive)
- GI50 [23]: > 100 µM (inactive)
- GI50 [24]: > 100 µM (inactive)
- GI50 [25]: > 100 µM (inactive)
- GI50 [26]: > 100 µM (inactive)
- GI50 [27]: > 100 µM (inactive)
- GI50 [28]: > 100 µM (inactive)
- GI50 [29]: > 100 µM (inactive)
- GI50 [30]: > 100 µM (inactive)
- GI50 [31]: > 100 µM (inactive)
- GI50 [32]: > 100 µM (inactive)
- GI50 [33]: > 100 µM (inactive)
- GI50 [34]: > 100 µM (inactive)
- GI50 [35]: > 100 µM (inactive)
- GI50 [36]: > 100 µM (inactive)
- GI50 [37]: > 100 µM (inactive)
- GI50 [38]: > 100 µM (inactive)
- GI50 [39]: > 100 µM (inactive)
- GI50 [40]: > 100 µM (inactive)
- GI50 [41]: > 100 µM (inactive)
- GI50 [42]: > 100 µM (inactive)
- GI50 [43]: > 100 µM (inactive)
- GI50 [44]: > 100 µM (inactive)
- GI50 [45]: > 100 µM (inactive)
- GI50 [46]: > 100 µM (inactive)
- GI50 [47]: > 100 µM (inactive)
- GI50 [48]: > 100 µM (inactive)
- GI50 [49]: > 100 µM (inactive)
- GI50 [50]: > 100 µM (inactive)
- GI50 [51]: > 100 µM (inactive)

SMILES: O=C1c2ccccc2-c2nnc3c(c21)-c1ccccc1C3
- GI50 [1]: > 100 µM (inactive)
- GI50 [2]: 62.7 µM (inactive)
- GI50 [3]: 27.5 µM (inactive)
- GI50 [4]: 65.6 µM (inactive)
- GI50 [5]: 89.3 µM (inactive)
- GI50 [6]: 46.6 µM (inactive)
- GI50 [7]: > 100 µM (inactive)
- GI50 [8]: 18.5 µM (inactive)
- GI50 [9]: 64 µM (inactive)
- GI50 [10]: 39.4 µM
- GI50 [11]: 60.5 µM (inactive)
- GI50 [52]: > 100 µM (inactive)
- GI50 [13]: 48 µM (inactive)
- GI50 [14]: > 100 µM (inactive)
- GI50 [17]: > 100 µM (inactive)
- GI50 [19]: > 100 µM (inactive)
- GI50 [20]: 64.6 µM (inactive)
- GI50 [21]: > 100 µM (inactive)
- GI50 [22]: > 100 µM (inactive)
- GI50 [23]: > 100 µM (inactive)
- GI50 [24]: 24.5 µM (inactive)
- GI50 [53]: > 100 µM (inactive)
- GI50 [25]: 43.5 µM (inactive)
- GI50 [54]: > 100 µM (inactive)
- GI50 [26]: 29.2 µM (inactive)
- GI50 [27]: 48.6 µM (inactive)
- GI50 [28]: > 100 µM (inactive)
- GI50 [30]: > 100 µM (inactive)
- GI50 [31]: 44.2 µM (inactive)
- GI50 [32]: > 100 µM (inactive)
- GI50 [33]: 57.1 µM (inactive)
- GI50 [34]: > 100 µM (inactive)
- GI50 [35]: > 100 µM (inactive)
- GI50 [36]: > 100 µM (inactive)
- GI50 [37]: 93.8 µM (inactive)
- GI50 [39]: > 100 µM (inactive)
- GI50 [40]: 66.8 µM (inactive)
- GI50 [41]: > 100 µM (inactive)
- GI50 [42]: > 100 µM (inactive)
- GI50 [43]: 39 µM (inactive)
- GI50 [44]: 76 µM (inactive)
- GI50 [45]: 12 µM (inactive)
- GI50 [46]: 53.2 µM (inactive)
- GI50 [47]: > 100 µM (inactive)
- GI50 [49]: 67 µM (inactive)
- GI50 [50]: > 100 µM (inactive)
- GI50 [55]: 37.6 µM (inactive)
- GI50 [51]: 23.2 µM (inactive)
